“And” between values parts separate entries of the source, which are not always exact repeats. Equal entries are not always repeated. Where two headings read alike, the source gives them in different places.
Legend:
rat TRPA1 [1] = molecular target: T1, rat TRPA1 (Rattus norvegicus, UniProt Q6RI86); test: Antagonist/desensitizing behavior against AITC 100 μM in rTRPA1-HEK-293 cells (5 min pre-incubation); format: cell-based
T1 construct: expressed in transfected cells; host or cells: HEK-293 cells, stably transfected
T1 sequence (Q6RI86 whole entry): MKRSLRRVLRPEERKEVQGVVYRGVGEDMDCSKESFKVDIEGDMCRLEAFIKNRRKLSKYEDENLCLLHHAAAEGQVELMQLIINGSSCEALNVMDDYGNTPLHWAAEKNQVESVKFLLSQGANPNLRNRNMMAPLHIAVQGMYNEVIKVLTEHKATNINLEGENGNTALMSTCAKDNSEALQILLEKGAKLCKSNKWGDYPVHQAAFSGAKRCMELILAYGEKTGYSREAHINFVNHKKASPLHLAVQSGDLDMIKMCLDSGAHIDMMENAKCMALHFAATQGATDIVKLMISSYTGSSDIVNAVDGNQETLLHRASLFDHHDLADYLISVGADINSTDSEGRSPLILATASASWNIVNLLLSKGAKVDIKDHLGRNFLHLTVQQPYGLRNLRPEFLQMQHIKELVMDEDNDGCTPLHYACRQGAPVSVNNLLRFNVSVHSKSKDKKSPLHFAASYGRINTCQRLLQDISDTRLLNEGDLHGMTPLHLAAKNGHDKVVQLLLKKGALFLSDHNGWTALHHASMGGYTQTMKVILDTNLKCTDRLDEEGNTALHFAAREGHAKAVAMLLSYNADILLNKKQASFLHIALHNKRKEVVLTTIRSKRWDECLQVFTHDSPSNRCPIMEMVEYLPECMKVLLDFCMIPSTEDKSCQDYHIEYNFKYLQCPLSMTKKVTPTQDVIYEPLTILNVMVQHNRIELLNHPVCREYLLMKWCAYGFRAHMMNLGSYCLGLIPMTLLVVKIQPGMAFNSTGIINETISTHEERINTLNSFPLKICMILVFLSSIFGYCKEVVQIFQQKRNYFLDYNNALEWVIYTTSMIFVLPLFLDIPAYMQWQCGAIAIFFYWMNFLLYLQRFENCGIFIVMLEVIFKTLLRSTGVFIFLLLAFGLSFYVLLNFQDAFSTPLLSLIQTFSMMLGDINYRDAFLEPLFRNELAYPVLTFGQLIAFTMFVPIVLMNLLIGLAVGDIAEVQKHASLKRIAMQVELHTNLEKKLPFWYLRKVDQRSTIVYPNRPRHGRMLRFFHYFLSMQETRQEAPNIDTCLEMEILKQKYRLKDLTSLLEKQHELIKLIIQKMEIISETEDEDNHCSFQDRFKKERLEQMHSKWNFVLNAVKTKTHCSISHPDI
Procedure: (§1) Compound effects on intracellular Ca^2+ concentration ([Ca^2+]i) were determined using the selective intracellular fluorescent probe Fluo-4. Assays of the rat TRPA1-mediated elevation of intracellular Ca^2+ in transfected HEK-293 cells were performed as described. Briefly, human embryonic kidney (HEK-293) cells (stably transfected with rat TRPA1 or not transfected) were cultured in EMEM + 2 mM Glutamine + 1 % non-essential amino acids (NEAA) + 10 % FBS and maintained at 37 °C with 5 % CO2. On the day of the experiment, the cells were loaded with Fluo-4 AM (4 μM) for 1 h at room temperature, rinsed and resuspended in Tyrode’s solution (145 mM NaCl, 2.5 mM KCl, 1.5 mM CaCl2, 1.2 mM MgCl2, 10 mM d-glucose, and 10 mM HEPES, pH 7.4), and finally transferred to a quartz cuvette of a spectrofluorimeter (Perkin-Elmer LS50B, Perkin Elmer Inc, Buckinghamshire, UK); λEX = 488 nm, λEM = 516 nm) equipped with a PTP-1 Fluorescence Peltier System (PerkinElmer Life and Analytical Sciences, Waltham, MA, USA) under continuous stirring. Cell fluorescence before and after the addition of various concentrations of test compounds was measured, normalizing the effects against the response to ionomycin (4 µM). The values of the effect on [Ca^2+]i in not-transfected HEK-293 cells were used as a baseline and subtracted from the values obtained from transfected cells. Agonist efficacy was expressed as a percentage of the effect on [Ca^2+]i observed with 100 μM allylisothiocyanate (AITC). The potency of the compounds (EC50 values) was determined as the concentration required to produce half-maximal increases in [Ca^2+]i. Antagonist/desensitizing behavior as evaluated against TRPA1 agonist AITC 100 μM by adding the compound directly into the quartz cuvette 5 min before the stimulation of cells with the agonist. IC50 is expressed as the concentration exerting a half-maximal inhibition of an agonist effect, taking as 100% the effect on [Ca^2+]i exerted by the agonist alone. Dose–response curves are fitted by a sigmoidal regression with a variable slope. Curve fitting and parameter estimation were performed with a GraphPad Prism (GraphPad Software Inc., San Diego, CA). Three independent experiments were done for each determination; all determinations were performed at least in triplicate. The time-course spectra showing the increase of intracellular Ca^2+ upon application of the compounds are available in Supplementary Material (S10).

rat TRPA1 [2] = molecular target: T1, rat TRPA1; test: rat TRPA1-mediated elevation of intracellular Ca2+ (Fluo-4) in transfected HEK-293 cells, agonist mode; format: cell-based; conditions: for Efficacy (%AITC 100μM): TRPA1, percentage of the effect on [Ca2+]i observed with 100 μM allylisothiocyanate (AITC); for Efficacy (%AITC 100μM) / EC50: rTRPA1-HEK-293 cells; for activity on TRPA1 channel (result in words): in vitro assays on TRPA1; for EC50: Potency EC50, TRPA1, concentration producing half-maximal increase in [Ca2+]i
Procedure: as §1

[3] = test system: not-transfected HEK cells; test: Intracellular Ca2+ elevation in not-transfected HEK-293 cells; format: cell-based, human; conditions: compound at 100 μM
Procedure: Compound effects on intracellular Ca^2+ concentration ([Ca^2+]i) were determined using the selective intracellular fluorescent probe Fluo-4. Assays of the rat TRPA1-mediated elevation of intracellular Ca^2+ in transfected HEK-293 cells were performed as described. Briefly, human embryonic kidney (HEK-293) cells (stably transfected with rat TRPA1 or not transfected) were cultured in EMEM + 2 mM Glutamine + 1 % non-essential amino acids (NEAA) + 10 % FBS and maintained at 37 °C with 5 % CO2. On the day of the experiment, the cells were loaded with Fluo-4 AM (4 μM) for 1 h at room temperature, rinsed and resuspended in Tyrode’s solution (145 mM NaCl, 2.5 mM KCl, 1.5 mM CaCl2, 1.2 mM MgCl2, 10 mM d-glucose, and 10 mM HEPES, pH 7.4), and finally transferred to a quartz cuvette of a spectrofluorimeter (Perkin-Elmer LS50B, Perkin Elmer Inc, Buckinghamshire, UK); λEX = 488 nm, λEM = 516 nm) equipped with a PTP-1 Fluorescence Peltier System (PerkinElmer Life and Analytical Sciences, Waltham, MA, USA) under continuous stirring. Cell fluorescence before and after the addition of various concentrations of test compounds was measured, normalizing the effects against the response to ionomycin (4 µM). […] Agonist efficacy was expressed as a percentage of the effect on [Ca^2+]i observed with 100 μM allylisothiocyanate (AITC). […]

Compound	IC50 (rat TRPA1 [1]) [µM]	Efficacy (%AITC 100μM) (rat TRPA1 [2])	activity on TRPA1 channel (result in words) (rat TRPA1 [2])	activity on TRPA1 channel (result in words) (rat TRPA1 [2]; listed as sinigrin)	IC50 (rat TRPA1 [1]; compound added 5 min before stimulation with AITC 100 μM, rTRPA1-HEK-293 cells, read-out: IC50 Inhibition TRPA1 (AITC 100μM)) [µM]	activity on TRPA1 channel (result in words) (rat TRPA1 [2]; listed as glucoputranjivin)	EC50 (rat TRPA1 [2]) [µM]	activity (elevation of internal Ca2+) on not-transfected HEK cells [3]
C=CCC(=NOS(=O)(=O)O)S[C@@H]1O[C@H](CO)[C@@H](O)[C@H](O)[C@H]1O (stereo in doubt) [Compound 5, sinigrin, reference compound]	> 100	<10%	ineffective	inactive	–	–	–	–
CC(C)/C(=N/OS(=O)(=O)O)S[C@@H]1O[C@H](CO)[C@@H](O)[C@H](O)[C@H]1O [Compound 1, glucoputranjivin]	–	<10%	ineffective	–	> 100	inactive	–	–
CC(C)N=C=S [Compound 2, isopropylisothiocyanate]	10.8 ± 0.4	108.8% and 108.8 ± 1.6%	–	–	–	–	5.9 ± 0.4	less than 1%
CCC(C)N=C=S (stereo not shown) [Compound 4, 2-butylisothiocyanate]	12.1 ± 0.2	98.0% and 98.0 ± 1.0%	–	–	–	–	4.9 ± 0.2	less than 1%

Source: publication PMC6429275, “Isothiocyanates and Glucosinolates from Sisymbrium officinale (L.) Scop. (“the Singers’ Plant”): Isolation and in Vitro Assays on the Somatosensory and Pain Receptor TRPA1 Channel” (Molecules, 2019)
